Measurements from BindingDB's records for doi:10.1016/s1074-5521(97)90073-9 (University of California Berkeley, 1997).

The molecules below were run against Cathepsin D (Homo sapiens, UniProt P07339) (assay: High Through-Put Fluorescence Assay). Details: pH 3.7.
Sequence of Cathepsin D (P07339 65-162 limits assumed): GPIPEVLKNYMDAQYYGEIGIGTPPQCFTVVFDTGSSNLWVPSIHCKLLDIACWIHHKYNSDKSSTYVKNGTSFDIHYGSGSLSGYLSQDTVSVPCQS
Sequence of Cathepsin D (P07339 169-412 limits assumed): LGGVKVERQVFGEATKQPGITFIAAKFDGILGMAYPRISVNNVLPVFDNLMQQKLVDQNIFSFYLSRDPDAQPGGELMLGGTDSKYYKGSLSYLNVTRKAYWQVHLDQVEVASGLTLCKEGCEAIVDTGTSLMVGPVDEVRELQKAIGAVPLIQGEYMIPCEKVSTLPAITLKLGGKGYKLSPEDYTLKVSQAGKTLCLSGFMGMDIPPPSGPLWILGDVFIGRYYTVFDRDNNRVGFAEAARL
Text: A fluorometric high through-put assay for inhibitor towards human liver cathepsin D from Calbiochem.
O=C(COc1cc(Cl)c(Cl)cc1Cl)N[C@@H](c1ccccc1)[C@H](O)CN(CCc1ccc2c(c1)OCO2)C(=O)CCN1C(=O)c2ccccc2C1=O [(R)-EHD] was tested, and the Ki was > 5000 nM. In the case of O=C(COc1ccc(Cl)c(Cl)c1)N[C@@H](c1ccccc1)[C@H](O)CN(CCc1ccc2c(c1)OCO2)C(=O)CCN1C(=O)c2ccccc2C1=O [(R)-EHO], the IC50 is reported as > 5000 nM. O=C(CCn1c(=O)oc2ccccc21)N[C@@H](c1ccccc1)C(O)CN(CCc1ccc2c(c1)OCO2)C(=O)CCc1ccc(Cl)c(Cl)c1 (stereo partly specified) [EFA] gave a Ki of 171 nM. O=C(CCn1c(=O)oc2ccccc21)N[C@@H](c1ccccc1)C(O)CN(CCc1ccc2c(c1)OCO2)C(=O)CCN1C(=O)c2ccccc2C1=O (stereo partly specified) [EHA] showed a Ki of 131 nM. O=C(COc1cc(Cl)c(Cl)cc1Cl)N[C@@H](c1ccccc1)C(O)CN(CCc1ccc2c(c1)OCO2)C(=O)CCN1C(=O)c2ccccc2C1=O (stereo partly specified) [EHD] gave a Ki of 73 nM. COc1ccc(C(=O)N[C@@H](c2ccccc2)C(O)CN(CCc2ccc3c(c2)OCO3)C(=O)CCN2C(=O)c3ccccc3C2=O)c(Cl)c1OC (stereo partly specified) [EHJ] showed a Ki of 111 nM. O=C(COc1ccc(Cl)cc1Cl)N[C@@H](c1ccccc1)C(O)CN(CCc1ccc2c(c1)OCO2)C(=O)CCN1C(=O)c2ccccc2C1=O (stereo partly specified) [EHM] gave an IC50 of 14 nM and a Ki of 9 nM. O=C(COc1ccc(Cl)c(Cl)c1)N[C@@H](c1ccccc1)C(O)CN(CCc1ccc2c(c1)OCO2)C(=O)CCN1C(=O)c2ccccc2C1=O (stereo partly specified) [EHO] gave an IC50 of 19 nM and a Ki of 15 nM. O=C(COc1cccc(Cl)c1)N[C@@H](c1ccccc1)C(O)CN(CCc1ccc2c(c1)OCO2)C(=O)CCN1C(=O)c2ccccc2C1=O (stereo partly specified) [EHR] gave an IC50 of 20 nM and a Ki of 15 nM. Molecule COc1cc(Br)c(C(=O)N[C@@H](c2ccccc2)C(O)CN(CCc2ccc3c(c2)OCO3)C(=O)CCN2C(=O)c3ccccc3C2=O)cc1OC (stereo partly specified) [EHS] has an IC50 of 64 nM and a Ki of 59 nM. In the case of COc1cccc(CCN(CC(O)[C@@H](NC(=O)Cn2c(O)csc2=S)c2ccccc2)C(=O)NC2CCCCC2)c1 (stereo partly specified) [FBB], the Ki is reported as 356 nM. For CCCCCCC(=O)N(CCc1cccc(OC)c1)CC(O)[C@@H](NC(=O)Cn1c(O)csc1=S)c1ccccc1 (stereo partly specified) [FDB], the Ki was 595 nM. In the case of O=C(CCn1c(=O)oc2ccccc21)N[C@@H](c1ccccc1)C(O)CN(CCc1ccc(Cl)cc1Cl)C(=O)CCN1C(=O)c2ccccc2C1=O (stereo partly specified) [FHA], the Ki is reported as 231 nM. O=C(COc1ccc(Cl)c(Cl)c1)N[C@@H](c1ccccc1)C(O)CN(CCc1ccc(Cl)cc1Cl)C(=O)CCN1C(=O)c2ccccc2C1=O (stereo partly specified) [FHO] showed an IC50 of 18 nM and a Ki of 14 nM. Molecule Cc1ccc(CCN(CC(O)[C@@H](NC(=O)COc2cc(Cl)c(Cl)cc2Cl)c2ccccc2)C(=O)CCN2C(=O)c3ccccc3C2=O)cc1 (stereo partly specified) [UHD] has an IC50 of 229 nM and a Ki of 224 nM.
